According to patent publication US8598128B2, “Fructosylated puerarin, and preparation method and use thereof” (priority 2010, dated 2013):
Entries after “also recorded” stand apart in the source; their conditions may differ.

How the values were obtained:
[1] = tested on: human breast cancer cell strain MDA-MB-231; assay: MDA-MB-231 cell toxicity test (MTT); format: cell-based; settings: 48 h; for OD value: MTT 490 nm
Description: MDA-MB-231 cells were cultured in an incubator at 37° C. with 5% CO2 saturated humidity in the RPMI-1640 complete culture medium containing inactivated fetal calf serum with volume fraction of 10%, 100 U penicillin and streptomycin. Take MDA-MB-231 cells in logarithmic phase (primary culture bottle) and discard the culture solution. […] Prepare the suspended solution of cells and adjust the cell concentration with appropriate amount of complete culture medium to 3×10^4/mL. Fed the cells into a tissue culture plate 96, with cell suspended liquid of 180 μL in each case, and put the culture plate into a cell incubator (37° C., 5% CO2) for conventional culture. When cells grew to 50%-70%, add drug liquid of different concentration. […] For DMSO solvent control group, add 20 μL of PBS containing […] and for the blank group, add 20 μL of PBS. For each drug concentration, 6 complex cases were provided. Put back the culture plate into the cell incubator, after 48 h, add 20 μL MTT (5 mg/mL) solution and continue to incubate it in the incubator for 4 h, then remove the supernatant and dry it with tissue, add 200 μL DMSO into each case and vibrate it in the rocker without light for 15 min, to allow the crystal to fully dissolve. Determine the light absorption at 490 nm with a fully automatic ELISA instrument, and calculate the average suppression rate, suppression rate (%)=(control group A490−test group A490)/control group A490), the experiment was repeated three times. Relevant analysis and Student t tests in Microsoft Excel 2003 were used, and data are presented in X±SD.

[2] = tested on: myocardio ischemia mice; assay: T wave amplitude variation in pituitrin acute myocardial ischemia model; format: in vivo, Sprague-Dawley mice (SD mice)
From the text: (§1) Embodiment 6: […] Pituitrin injection was purchased from Nanjing Xinbai Pharmaceutical Co., Ltd., normal saline injection from Nanjing Xiaoying Pharmaceutical Co., Ltd., and DMSO, PG, and anhydrous ethanol were of chromatographic class. […] The data were presented with, and tested with t. P<0.05 indicates substantial difference, P<0.01 indicates very substantial difference; and P<0.001 indicates extremely substantial difference.

[3] = tested on: human chronmyelogenors leukemia cell strain K562; assay: K562 cell toxicity test (MTT); format: cell-based; settings: 48 h; for OD value: MTT 490 nm
Description: K-562 cells were cultured in an incubator at 37° C. with 5% CO2 saturated humidity in the RPMI-1640 complete culture medium containing inactivated calf serum with volume fraction of 10%, 100 U penicillin and streptomycin. […] For each drug concentration, 6 complex cases were provided. Put back the culture plate into the cell incubator, after 48 h, add 20 μL MTT (5 mg/mL) solution and continue to incubate it in the incubator for 4 h, then each case was added with triple liquid 100 μL, put it overnight to allow the crystal to fully dissolve. Vibrate it with oscillator for 20 min and determine the light absorption at 490 nm with a fully automatic ELISA instrument, and calculate the average suppression rate, suppression rate (%)=(control group A490−test group A490)/control group A490), the experiment was repeated three times. Relevant analysis and Student t tests in Microsoft Excel 2003 were used, and data are presented in X±SD.

[4] = tested on: myocardio ischemia mice; assay: Heart rate in pituitrin acute myocardial ischemia model; format: in vivo, Sprague-Dawley mice (SD mice)
From the text: as §1

Q: For `O=c1c(-c2ccc(O)cc2)coc2c([C@@H]3O[C@H](CO[C@]4(CO)O[C@H](CO)[C@@H](O)[C@@H]4O)[C@@H](O)[C@H](O)[C@H]3O)c(O)ccc12` [monofructosyl-β(2,6)-puerarin], which Average suppression rate ([1]; 0.5 μmol/L) is on record?
A: 3.68%

Q: And the OD value ([1]; 0.5 μmol/L)?
A: 0.676 ± 0.021

Q: And the Average suppression rate ([1]; 1 μmol/L)?
A: 5.02%

Q: What about the OD value ([1]; 1 μmol/L) of the same compound?
A: 0.666 ± 0.069

Q: What about the Average suppression rate ([1]; 5 μmol/L) of the same compound?
A: 3.47%

Q: And the OD value ([1]; 5 μmol/L)?
A: 0.677 ± 0.081

Q: What about the Average suppression rate ([1]; 10 μmol/L) of the same compound?
A: 4.20%

Q: And the OD value ([1]; 10 μmol/L)?
A: 0.672 ± 0.085

Q: What about the Average suppression rate ([1]; 50 μmol/L) of the same compound?
A: 20.17%

Q: What about the OD value ([1]; 50 μmol/L) of the same compound?
A: 0.560 ± 0.062

Q: What about the Average suppression rate ([1]; 100 μmol/L) of the same compound?
A: 28.70%

Q: What about the OD value ([1]; 100 μmol/L) of the same compound?
A: 0.500 ± 0.068

Q: What about the Average suppression rate ([1]; 150 μmol/L) of the same compound?
A: 44.04%

Q: What about the OD value ([1]; 150 μmol/L) of the same compound?
A: 0.392 ± 0.041

Q: What about the Average suppression rate ([1]; 200 μmol/L) of the same compound?
A: 59.42%

Q: And the OD value ([1]; 200 μmol/L)?
A: 0.285 ± 0.067

Q: And the “T wave amplitude variation” value ([2]; 12.5 mg/kg, 15 s after Pit)?
A: 0.082 ± 0.060 mv

Q: What about the “T wave amplitude variation” value ([2]; 12.5 mg/kg, 30 s after Pit) of the same compound?
A: 0.097 ± 0.084 mv

Q: What about the “T wave amplitude variation” value ([2]; 12.5 mg/kg, 1 min after Pit) of the same compound?
A: 0.051 ± 0.034 mv

Q: What about the “T wave amplitude variation” value ([2]; 12.5 mg/kg, 2 min after Pit) of the same compound?
A: 0.102 ± 0.071 mv

Q: And the “T wave amplitude variation” value ([2]; 12.5 mg/kg, 5 min after Pit)?
A: 0.069 ± 0.040 mv

Q: What about the “T wave amplitude variation” value ([2]; 12.5 mg/kg, 10 min after Pit) of the same compound?
A: 0.068 ± 0.038 mv

Q: What about the “T wave amplitude variation” value ([2]; 25 mg/kg, 15 s after Pit) of the same compound?
A: 0.053 ± 0.027 mv

Q: And the “T wave amplitude variation” value ([2]; 25 mg/kg, 30 s after Pit)?
A: 0.105 ± 0.076 mv

Q: What about the “T wave amplitude variation” value ([2]; 25 mg/kg, 1 min after Pit) of the same compound?
A: 0.116 ± 0.088 mv

Q: And the “T wave amplitude variation” value ([2]; 25 mg/kg, 2 min after Pit)?
A: 0.112 ± 0.087 mv

Q: And the “T wave amplitude variation” value ([2]; 25 mg/kg, 5 min after Pit)?
A: 0.067 ± 0.038 mv

Q: And the “T wave amplitude variation” value ([2]; 25 mg/kg, 10 min after Pit)?
A: 0.054 ± 0.038 mv

Q: And the “T wave amplitude variation” value ([2]; 50 mg/kg, 15 s after Pit)?
A: 0.092 ± 0.067 mv

Q: What about the “T wave amplitude variation” value ([2]; 50 mg/kg, 30 s after Pit) of the same compound?
A: 0.118 ± 0.087 mv

Q: And the “T wave amplitude variation” value ([2]; 50 mg/kg, 1 min after Pit)?
A: 0.109 ± 0.084 mv

Q: What about the “T wave amplitude variation” value ([2]; 50 mg/kg, 2 min after Pit) of the same compound?
A: 0.106 ± 0.091 mv

Q: And the “T wave amplitude variation” value ([2]; 50 mg/kg, 5 min after Pit)?
A: 0.080 ± 0.070 mv

Q: And the “T wave amplitude variation” value ([2]; 50 mg/kg, 10 min after Pit)?
A: 0.082 ± 0.058 mv

Q: What about the “effect against myocardial ischemia (T wave) in words” value ([2]; 12.5, 25 and 50 mg/kg, compared with puerarin) of the same compound?
A: can better resist myocardial ischemia than puerarin; also recorded: has better effect to resist myocardio ischemia than puerarin

Q: And the Average suppression rate ([3]; 1 μmol/L)?
A: 7.85%

Q: And the OD value ([3]; 1 μmol/L)?
A: 0.950 ± 0.041

Q: And the Average suppression rate ([3]; 5 μmol/L)?
A: 7.53%

Q: What about the OD value ([3]; 5 μmol/L) of the same compound?
A: 0.950 ± 0.018

Q: What about the Average suppression rate ([3]; 10 μmol/L) of the same compound?
A: 6.76%

Q: And the OD value ([3]; 10 μmol/L)?
A: 0.958 ± 0.022

Q: What about the Average suppression rate ([3]; 20 μmol/L) of the same compound?
A: 6.16%

Q: And the OD value ([3]; 20 μmol/L)?
A: 0.963 ± 0.055

Q: And the Average suppression rate ([3]; 50 μmol/L)?
A: 11.14%

Q: And the OD value ([3]; 50 μmol/L)?
A: 0.913 ± 0.048

Q: What about the Average suppression rate ([3]; 100 μmol/L) of the same compound?
A: 16.41%

Q: And the OD value ([3]; 100 μmol/L)?
A: 0.858 ± 0.028

Q: And the Average suppression rate ([3]; 150 μmol/L)?
A: 29.84%

Q: And the OD value ([3]; 150 μmol/L)?
A: 0.720 ± 0.055

Q: What about the Average suppression rate ([3]; 200 μmol/L) of the same compound?
A: 46.41%

Q: And the OD value ([3]; 200 μmol/L)?
A: 0.550 ± 0.086

Q: And the Heart rate ([4]; 12.5 mg/kg, 5 s)?
A: 433 ± 63 time · min^−1

Q: And the Heart rate ([4]; 12.5 mg/kg, 10 s)?
A: 416 ± 79 time · min^−1

Q: What about the Heart rate ([4]; 12.5 mg/kg, 15 s) of the same compound?
A: 411 ± 75 time · min^−1

Q: And the Heart rate ([4]; 12.5 mg/kg, 30 s)?
A: 389 ± 72 time · min^−1

Q: And the Heart rate ([4]; 12.5 mg/kg, 1 min)?
A: 347 ± 71 time · min^−1

Q: What about the Heart rate ([4]; 12.5 mg/kg, 2 min) of the same compound?
A: 339 ± 57 time · min^−1

Q: What about the Heart rate ([4]; 12.5 mg/kg, 5 min) of the same compound?
A: 349 ± 50 time · min^−1

Q: What about the Heart rate ([4]; 12.5 mg/kg, 10 min) of the same compound?
A: 395 ± 45 time · min^−1

Q: What about the Heart rate ([4]; 12.5 mg/kg, Normal) of the same compound?
A: 403 ± 54 time · min^−1

Q: What about the Heart rate ([4]; 25 mg/kg, 5 s) of the same compound?
A: 476 ± 65 time · min^−1

Q: What about the Heart rate ([4]; 25 mg/kg, 10 s) of the same compound?
A: 442 ± 81 time · min^−1

Q: What about the Heart rate ([4]; 25 mg/kg, 15 s) of the same compound?
A: 405 ± 88 time · min^−1

Q: What about the Heart rate ([4]; 25 mg/kg, 30 s) of the same compound?
A: 428 ± 65 time · min^−1

Q: What about the Heart rate ([4]; 25 mg/kg, 1 min) of the same compound?
A: 403 ± 54 time · min^−1

Q: What about the Heart rate ([4]; 25 mg/kg, 2 min) of the same compound?
A: 386 ± 41 time · min^−1

Q: What about the Heart rate ([4]; 25 mg/kg, 5 min) of the same compound?
A: 375 ± 37 time · min^−1

Q: What about the Heart rate ([4]; 25 mg/kg, 10 min) of the same compound?
A: 420 ± 43 time · min^−1

Q: And the Heart rate ([4]; 25 mg/kg, Normal)?
A: 474 ± 68 time · min^−1

Q: What about the Heart rate ([4]; 50 mg/kg, 5 s) of the same compound?
A: 485 ± 95 time · min^−1

Q: And the Heart rate ([4]; 50 mg/kg, 10 s)?
A: 423 ± 84 time · min^−1

Q: What about the Heart rate ([4]; 50 mg/kg, 15 s) of the same compound?
A: 420 ± 76 time · min^−1

Q: And the Heart rate ([4]; 50 mg/kg, 30 s)?
A: 378 ± 34 time · min^−1

Q: And the Heart rate ([4]; 50 mg/kg, 1 min)?
A: 327 ± 89 time · min^−1

Q: What about the Heart rate ([4]; 50 mg/kg, 2 min) of the same compound?
A: 339 ± 45 time · min^−1

Q: And the Heart rate ([4]; 50 mg/kg, 5 min)?
A: 347 ± 55 time · min^−1

Q: What about the Heart rate ([4]; 50 mg/kg, 10 min) of the same compound?
A: 435 ± 72 time · min^−1

Q: What about the Heart rate ([4]; 50 mg/kg, Normal) of the same compound?
A: 483 ± 91 time · min^−1

Q: And the “effect on heart rate restoration in words” value ([4]; 12.5, 25 and 50 mg/kg)?
A: has certain therapy effect on the heart disorder caused by myocardial ischemia; also recorded: has certain therapy effect on the heart disorder caused by myocardio ischemia
